Test results reported in patent US4386075A, “Renally active tetrapeptides” (SmithKline Beckman Corporation, priority 1982, dated 1983).

Assays:
[1] = tested on: spontaneously hypertensive rat; conditions: in vivo
[2] = tested on: anesthetized dogs; assay: anesthetized dog infusion test (MAP, RBF, RVR, HR); assay type: in vivo; conditions: for % change HR (heart rate) / % change MAP (mean arterial blood pressure) / % change RBF (renal blood flow) / % change RVR (renal vascular resistance): 1 dog
From the text: In the anesthetized dog protocol discussed above this compound gave the following data: […]

[3] = tested on: toad bladder; conditions: toad bladder test
[4] = secondary test
[5] = 300 μg/kg/min, anesthetized dog, cumulative effects

## 4-(4-hydroxyphenyl)-butyryl-L-propyl-D,L-α-methylphenylalanyl-glycyl-L-proline [Example 2]
[1]
  activity in spontaneously hypertensive rat protocol: not active
  diuresis in spontaneously hypertensive rat protocol: slight water diuresis
[2]; infusion 3 μg/kg/min
  % change HR (heart rate): 6%
  % change MAP (mean arterial blood pressure): -5%
  % change RBF (renal blood flow): 17%
  % change RVR (renal vascular resistance): -18%
[2]; infusion 30 μg/kg/min
  % change HR (heart rate): 10%
  % change MAP (mean arterial blood pressure): -9%
  % change RBF (renal blood flow): 16%
  % change RVR (renal vascular resistance): -21%
[2]; infusion 300 μg/kg/min
  % change HR (heart rate): 6%
  % change MAP (mean arterial blood pressure): -6%
  % change RBF (renal blood flow): 14%
  % change RVR (renal vascular resistance): -17%
[2]; measured after the normal period of the test, increased from 127 ml/min
  renal blood flow, cumulative effect: 162 mL/min
[2]; measured after the normal period of the test, predrug level 140 BPM
  cardiac rate (HR), cumulative effect: 105 BPM
[3]
  reversal of antidiuretic hormone activity: inactive
[4]
  ED15: 1.9 µg/kg

## NCCc1ccc(O)c(O)c1 [Dopamine, reference compound]
[2]; dog test procedure
  ED15: about 3 mcg/kg/min
[2]; infusion 3 μg/kg/min
  % change HR (heart rate): 2%
  % change MAP (mean arterial blood pressure): -16%
  % change RBF (renal blood flow): 28%
  % change RVR (renal vascular resistance): -34%
[4]
  ED15: 3.5 µg/kg

## N-4-(4-hydroxyphenyl)-butyryl-L-prolyl-D-phenylalanyl-glycyl-L-proline [Example 3]
[2]; [5]
  cumulative effect HR: -8
  cumulative effect MAP: 0
  cumulative effect RBF: +22
  cumulative effect RVR: -18
